Patent US12268674B2, “Mi-2β inhibitor as an immunotherapy agent” (BioVentures, LLC, priority 2021, dated 2025)

Experiments:
RUVBL2 = target: T1, RUVBL2 (Homo sapiens, UniProt Q9Y230); test: ATPase profile (ATP acyl phosphate probe); type: binding; details: RUVBL2, SEQ ID NO: 189, ATP BS
T1 construct: to get the native cell lysate; endogenous in cells; host or cells: A375 cell lysate

CMPK1 = target: T2, CMPK1 (Homo sapiens, UniProt P30085); test: ATPase profile (ATP acyl phosphate probe); type: binding; details: CMPK1, SEQ ID NO: 60, ATP BS
T2 construct: endogenous in cells; host or cells: A375 cell lysate

HPRT1 = target: T3, HPRT1 (Homo sapiens, UniProt P00492); test: ATPase profile (ATP acyl phosphate probe); type: binding; details: HPRT1, SEQ ID NO: 93, ATP BS
T3 construct: to get the native cell lysate; endogenous in cells; host or cells: A375

B16F10 melanoma graft = test: Syngeneic melanoma graft mouse model
Method: To test Z36-MP5 function in syngeneic mouse model, B16F10 cells (1.5×105) were mixed with BD matrigel (Matrix Growth Factor Reduced) (BD, 354230) in 100 μl PBS, and then mouse subcutaneous injection and tumor graft monitor were performed as described above. Except that vehicle [5% (w/v) Kolliphor HS 15 (Sigma)] in normal saline or formulated 30 mg/kg Z36-MP5 was administered with i.p. injection once a day starting at day 6, together with i.p. injection of control IgG antibodies (10 mg/kg) or anti-PD-1 (RMP1-14, BioXCell, 10 mg/kg) on day 6, 9, 12, 15 and 18. The mice were euthanized after indicated days or when the allowable endpoint size (1 cm^3) was reached.
Tumors were minced with scissors, and then digested with the digestion buffer (RPMI 1640 medium, 5% FBS, 1% penicillin-streptomycin, 25 mM HEPES, and 300 U collagenase (Sigma C0130)) on a shaker at 37° C. for 2 hours. Single cells were prepared through a 70 m cell strainer. Erythrocytes were removed by incubation in red blood cell lysis buffer (R7757, Sigma) at room temperature for 5 min. The cells were prepared in PBS (with concentration of ˜2×10^7) for studies.
The single-cell suspension were fixed with 2% paraformaldehyde solution (J19943K2, Thermo Scientific). And then the cells were stained with the follow antibodies: anti-mouse CD45 APC (104, BD pharmingen, 561875), anti-mouse CD3e PE (145-2C11, BD pharmingen, 553063), anti-mouse CD4 FITC (RM4-5, BD pharmingen, 553046), anti-mouse CD4 PE/Cy7 (GK1.5, BioLegend, 100421), anti-mouse CD8 FITC (53-6.7, BD pharmingen, 553031), anti-mouse CD8a APC/Cy7 (53-6.7, BioLegend 100713), anti-mouse IFN-γ PE (XMG1.2, eBioscience, 12731181), anti-mouse CD69 PE (H1.2F3, Biolegend, 104508), anti-mouse CD25 Alexa Fluor 488 (PC61.5, eBioscience, 53025182), anti-mouse CD107a-V450 (1D4B, BD, 560648), anti-human/mouse granzyme B FITC (GB 11, BioLegend, 515403). The regulatory T cells in TILs were stained with the Mouse Regulatory T Cell Staining kit #1 (88-8111, ThermoFisher Scienctific), with antibodies of anti-mouse CD4 FITC (RM4-5), anti-mouse CD25 APC (PC61.5) anti-mouse Foxp3 PE (FJK-16s). BD LSRII was used for data acquisition and FlowJo was used for data analysis.

PRKAG1 = PRKAG1 (Homo sapiens, UniProt P54619); test: ATPase profile (ATP acyl phosphate probe); type: binding
HARS = target: T4, HARS (Homo sapiens, UniProt P12081); test: ATPase profile (ATP acyl phosphate probe); type: binding; details: SEQ ID NO: 89, ATP BS
T4 construct: endogenous in cells; host or cells: A375 cell lysate

PRKAG1, PRKAG2 = test: ATPase profile (ATP acyl phosphate probe); type: binding; details: PRKAG1, PRKAG2, SEQ ID NO: 169, ATP BS
[1] = tested on: Mi-2β function (CXCL9, CXCL10, IRF1 expression) in A375 cells; test: Cell-based assay of inhibitory activity on Mi-2β function, A375; details: summary of Table 3 (A375 and B16)
Method: The total RNA was extracted with QIAGEN RNeasy kit […] for cDNA synthesis with SuperScript II Reverse Transcriptase (Invitrogen). In total, 40 ng cDNA was used for quantitative real-time PCR amplification by TaqMan Gene Expression Master Mix (Thermo Fisher Scientific). The relative transcript levels were normalized with GAPDH expression. The data were calculated with the comparative CT method.

ATP5B = target: T5, ATP5B (Homo sapiens, UniProt P06576); test: ATPase profile (ATP acyl phosphate probe); type: binding; details: SEQ ID NO: 48, ATP BS
T5 construct: to get the native cell lysate; host or cells: A375 cell lysate

UBA1 = UBA1 (Homo sapiens, UniProt P22314); test: ATPase profile (ATP acyl phosphate probe); type: binding; details: UBA1, SEQ ID NO: 217, ATP BS
DDX18 = target: T6, DDX18 (Homo sapiens, UniProt Q9NVP1); test: ATPase profile (ATP acyl phosphate probe); type: binding; details: DDX18, SEQ ID NO: 66, ATP BS
T6 construct: endogenous in cells; host or cells: A375 cell lysate

NT5E = target: T7, NT5E (Homo sapiens, UniProt P21589); test: ATPase profile (ATP acyl phosphate probe); type: binding; details: SEQ ID NO: 140, ATP BS
T7 construct: to get the native cell lysate; endogenous in cells; host or cells: A375

RFC4 = target: T8, RFC4 (Homo sapiens, UniProt P35249); test: ATPase profile (ATP acyl phosphate probe); type: binding; details: RFC4, SEQ ID NO: 185, ATP BS
T8 construct: to get the native cell lysate; endogenous in cells; host or cells: A375 cell lysate

GMPS = target: T9, GMPS (Homo sapiens, UniProt P49915); test: ATPase profile (ATP acyl phosphate probe); type: binding
T9 construct: endogenous in cells; host or cells: A375 cell lysate

DERA = target: T10, DERA (Homo sapiens, UniProt Q9Y315); test: ATPase profile (ATP acyl phosphate probe); type: binding; details: SEQ ID NO: 71, ATP BS
T10 construct: endogenous in cells; host or cells: A375 cell lysate

[2] = Z36-MP5 30 mg/kg combined with anti-PD-1 10 mg/kg, B16F10 graft

Chain of PRKAG1 (P54619 whole entry): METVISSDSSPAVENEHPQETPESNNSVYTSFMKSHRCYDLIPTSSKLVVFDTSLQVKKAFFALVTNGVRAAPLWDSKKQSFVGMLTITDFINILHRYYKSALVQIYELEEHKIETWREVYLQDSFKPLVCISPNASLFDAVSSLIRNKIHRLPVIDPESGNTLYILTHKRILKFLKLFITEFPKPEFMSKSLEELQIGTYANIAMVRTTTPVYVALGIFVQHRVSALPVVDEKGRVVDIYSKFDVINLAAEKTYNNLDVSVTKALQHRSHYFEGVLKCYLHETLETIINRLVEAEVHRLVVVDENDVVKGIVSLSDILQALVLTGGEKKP
Chain of PRKAG1 (Q13131 whole entry partner): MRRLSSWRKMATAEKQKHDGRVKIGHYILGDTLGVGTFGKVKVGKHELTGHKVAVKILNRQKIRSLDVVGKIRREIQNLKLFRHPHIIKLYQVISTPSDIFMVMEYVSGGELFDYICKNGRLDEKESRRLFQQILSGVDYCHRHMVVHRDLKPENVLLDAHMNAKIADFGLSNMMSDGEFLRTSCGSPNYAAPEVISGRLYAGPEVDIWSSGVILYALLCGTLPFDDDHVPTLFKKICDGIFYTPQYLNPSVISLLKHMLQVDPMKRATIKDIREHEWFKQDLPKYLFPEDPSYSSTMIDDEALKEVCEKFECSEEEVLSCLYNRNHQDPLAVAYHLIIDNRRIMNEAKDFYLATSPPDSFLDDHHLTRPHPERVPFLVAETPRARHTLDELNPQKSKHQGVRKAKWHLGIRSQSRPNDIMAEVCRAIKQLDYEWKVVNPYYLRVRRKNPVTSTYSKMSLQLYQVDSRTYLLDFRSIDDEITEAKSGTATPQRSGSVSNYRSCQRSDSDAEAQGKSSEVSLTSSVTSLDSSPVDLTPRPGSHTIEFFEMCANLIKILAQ
Chain of PRKAG1 (Q9Y478 whole entry partner): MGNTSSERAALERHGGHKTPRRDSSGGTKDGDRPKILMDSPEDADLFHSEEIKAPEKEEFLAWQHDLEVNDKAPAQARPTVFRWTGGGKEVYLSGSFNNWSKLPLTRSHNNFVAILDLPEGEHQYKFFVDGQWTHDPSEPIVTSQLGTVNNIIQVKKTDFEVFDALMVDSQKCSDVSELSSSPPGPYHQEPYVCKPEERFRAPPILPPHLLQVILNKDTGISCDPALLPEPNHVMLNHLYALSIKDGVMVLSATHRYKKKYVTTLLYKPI
T9 sequence (P49915 whole entry): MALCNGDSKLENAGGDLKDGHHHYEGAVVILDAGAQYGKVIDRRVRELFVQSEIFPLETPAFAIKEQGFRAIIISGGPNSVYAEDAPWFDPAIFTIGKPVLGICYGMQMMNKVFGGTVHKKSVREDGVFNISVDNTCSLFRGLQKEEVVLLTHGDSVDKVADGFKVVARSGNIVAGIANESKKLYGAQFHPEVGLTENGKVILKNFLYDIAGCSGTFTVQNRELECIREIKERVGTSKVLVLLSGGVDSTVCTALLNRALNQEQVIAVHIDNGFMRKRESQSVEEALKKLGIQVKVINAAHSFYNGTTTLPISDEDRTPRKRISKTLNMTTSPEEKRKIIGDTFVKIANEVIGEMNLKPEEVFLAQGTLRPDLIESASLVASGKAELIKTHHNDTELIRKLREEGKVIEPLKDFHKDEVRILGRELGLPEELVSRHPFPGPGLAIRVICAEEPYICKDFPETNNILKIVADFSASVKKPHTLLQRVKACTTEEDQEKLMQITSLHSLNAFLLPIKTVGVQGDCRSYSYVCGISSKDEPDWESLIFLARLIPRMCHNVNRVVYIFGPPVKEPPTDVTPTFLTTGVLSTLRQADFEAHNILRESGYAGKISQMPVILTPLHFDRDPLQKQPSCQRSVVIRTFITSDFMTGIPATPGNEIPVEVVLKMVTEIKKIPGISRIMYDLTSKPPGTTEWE
T8 sequence (P35249 whole entry): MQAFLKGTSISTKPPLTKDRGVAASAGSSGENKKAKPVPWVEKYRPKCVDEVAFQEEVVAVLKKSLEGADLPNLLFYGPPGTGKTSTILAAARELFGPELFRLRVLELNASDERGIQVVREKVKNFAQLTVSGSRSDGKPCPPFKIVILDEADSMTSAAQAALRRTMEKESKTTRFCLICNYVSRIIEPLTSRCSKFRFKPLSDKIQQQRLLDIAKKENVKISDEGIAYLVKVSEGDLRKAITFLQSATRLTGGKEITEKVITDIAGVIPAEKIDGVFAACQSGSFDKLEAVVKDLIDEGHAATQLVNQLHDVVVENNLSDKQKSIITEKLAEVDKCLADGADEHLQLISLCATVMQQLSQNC
T8 sequence (P40938 whole entry partner): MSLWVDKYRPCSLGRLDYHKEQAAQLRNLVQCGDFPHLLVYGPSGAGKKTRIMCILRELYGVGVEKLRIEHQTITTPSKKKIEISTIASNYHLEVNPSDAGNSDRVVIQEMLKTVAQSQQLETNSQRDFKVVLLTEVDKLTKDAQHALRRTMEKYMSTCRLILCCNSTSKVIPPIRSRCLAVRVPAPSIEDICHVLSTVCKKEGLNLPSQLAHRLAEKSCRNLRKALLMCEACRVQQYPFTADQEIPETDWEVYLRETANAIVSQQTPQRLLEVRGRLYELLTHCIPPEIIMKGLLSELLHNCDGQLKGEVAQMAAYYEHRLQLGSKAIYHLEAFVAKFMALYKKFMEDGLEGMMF
T8 sequence (P35250 whole entry partner): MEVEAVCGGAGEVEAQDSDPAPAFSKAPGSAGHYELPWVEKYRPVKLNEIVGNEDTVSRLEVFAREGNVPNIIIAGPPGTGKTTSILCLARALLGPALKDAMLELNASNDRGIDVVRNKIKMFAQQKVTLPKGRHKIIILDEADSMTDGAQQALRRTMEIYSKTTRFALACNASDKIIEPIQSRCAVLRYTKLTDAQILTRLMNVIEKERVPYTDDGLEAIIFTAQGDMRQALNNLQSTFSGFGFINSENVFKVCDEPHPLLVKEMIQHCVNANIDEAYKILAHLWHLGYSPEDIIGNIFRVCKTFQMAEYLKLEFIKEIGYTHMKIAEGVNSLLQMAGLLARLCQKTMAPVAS
T8 sequence (P40937 whole entry partner): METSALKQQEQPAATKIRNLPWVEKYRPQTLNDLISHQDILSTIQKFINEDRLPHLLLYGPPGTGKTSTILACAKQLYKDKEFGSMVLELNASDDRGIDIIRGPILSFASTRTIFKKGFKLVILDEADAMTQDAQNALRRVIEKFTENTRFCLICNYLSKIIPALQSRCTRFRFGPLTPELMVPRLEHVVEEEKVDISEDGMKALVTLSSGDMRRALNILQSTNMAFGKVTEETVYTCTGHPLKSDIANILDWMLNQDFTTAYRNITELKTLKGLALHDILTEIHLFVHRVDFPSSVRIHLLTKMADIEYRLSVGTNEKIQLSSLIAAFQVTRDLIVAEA
T8 sequence (P35251 whole entry partner): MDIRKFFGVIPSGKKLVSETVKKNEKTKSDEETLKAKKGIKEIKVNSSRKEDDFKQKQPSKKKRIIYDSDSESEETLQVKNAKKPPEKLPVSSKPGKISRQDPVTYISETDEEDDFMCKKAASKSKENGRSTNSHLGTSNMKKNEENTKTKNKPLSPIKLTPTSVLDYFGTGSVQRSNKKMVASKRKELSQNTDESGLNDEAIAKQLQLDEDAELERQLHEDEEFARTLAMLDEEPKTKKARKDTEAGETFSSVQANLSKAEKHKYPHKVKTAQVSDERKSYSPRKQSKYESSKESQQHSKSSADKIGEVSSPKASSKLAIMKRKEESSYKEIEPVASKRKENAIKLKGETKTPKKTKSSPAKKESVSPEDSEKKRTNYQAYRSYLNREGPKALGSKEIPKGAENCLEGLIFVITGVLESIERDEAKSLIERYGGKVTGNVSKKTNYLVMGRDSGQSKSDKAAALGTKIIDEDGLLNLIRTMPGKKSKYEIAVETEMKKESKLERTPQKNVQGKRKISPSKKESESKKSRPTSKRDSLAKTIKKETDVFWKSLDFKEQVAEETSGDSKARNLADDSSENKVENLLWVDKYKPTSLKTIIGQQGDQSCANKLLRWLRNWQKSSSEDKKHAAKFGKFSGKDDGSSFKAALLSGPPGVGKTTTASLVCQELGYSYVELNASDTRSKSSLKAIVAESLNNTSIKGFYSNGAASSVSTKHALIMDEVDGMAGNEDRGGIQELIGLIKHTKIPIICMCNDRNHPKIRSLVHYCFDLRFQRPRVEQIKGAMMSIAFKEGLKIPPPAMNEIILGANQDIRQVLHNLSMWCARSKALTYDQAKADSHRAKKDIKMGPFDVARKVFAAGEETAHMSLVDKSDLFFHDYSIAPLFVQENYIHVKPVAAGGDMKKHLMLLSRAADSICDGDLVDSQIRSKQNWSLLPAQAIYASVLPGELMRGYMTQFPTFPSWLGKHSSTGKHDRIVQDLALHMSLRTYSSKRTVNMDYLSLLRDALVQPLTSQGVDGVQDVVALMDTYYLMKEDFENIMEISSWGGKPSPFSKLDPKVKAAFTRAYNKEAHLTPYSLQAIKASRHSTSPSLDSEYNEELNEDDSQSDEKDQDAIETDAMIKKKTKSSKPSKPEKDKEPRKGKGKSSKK
T10 sequence (Q9Y315 whole entry): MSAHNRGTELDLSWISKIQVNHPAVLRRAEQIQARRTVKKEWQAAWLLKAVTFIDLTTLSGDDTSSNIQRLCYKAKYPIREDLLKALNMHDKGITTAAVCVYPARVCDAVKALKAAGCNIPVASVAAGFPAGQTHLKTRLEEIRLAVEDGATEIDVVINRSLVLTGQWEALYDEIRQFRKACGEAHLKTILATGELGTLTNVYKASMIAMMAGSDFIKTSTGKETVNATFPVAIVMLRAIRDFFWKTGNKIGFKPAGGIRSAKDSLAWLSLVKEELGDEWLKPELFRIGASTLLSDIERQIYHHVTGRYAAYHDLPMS
T2 sequence (P30085 whole entry): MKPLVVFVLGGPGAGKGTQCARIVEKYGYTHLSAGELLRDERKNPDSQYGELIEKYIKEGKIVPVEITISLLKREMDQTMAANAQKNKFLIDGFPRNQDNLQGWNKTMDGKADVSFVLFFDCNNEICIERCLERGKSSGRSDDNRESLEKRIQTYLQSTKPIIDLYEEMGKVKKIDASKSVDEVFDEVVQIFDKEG

Cn1c(=O)[nH]c2ccc(-c3cccc(C(=O)NC4CCn5ccnc5C4)c3)cc21 (stereo not drawn) [Z36-MP5, 3-(3-methyl-2-oxo-2,3-dihydro-1H-benzo[d]imidazol-5-yl)-N-(5,6,7,8-tetrahydroimidazo[1,2-a]pyridin-7-yl)benzamide]
Inhibition (%) by 1 μM Z36-MP5 (RUVBL2): −0.97%
Inhibition (%) by 1 μM Z36-MP5 (CMPK1): 2.41%
Inhibition (%) by 1 μM Z36-MP5 (HPRT1): 12.92%
mouse survival (B16F10 melanoma graft; [2]): extended mouse survival
tumor growth (B16F10 melanoma graft; [2]): substantial inhibition
GZMB expression and activation markers CD69, IFN-γ, CD25 and CD107 in tumor-infiltrating CD8+ T cells (B16F10 melanoma graft; Z36-MP5 alone): upregulation
CD8+ T cell TILs (B16F10 melanoma graft; Z36-MP5 alone, graft melanomas): moderate increase
GZMB expression and activation markers CD69, IFN-γ, CD25 and CD107 in tumor-infiltrating CD8+ T cells (B16F10 melanoma graft; Z36-MP5 combined with anti-PD-1): augmented
CD8+ T cell TILs (B16F10 melanoma graft; Z36-MP5 combined with anti-PD-1, graft melanomas): augmented
population of CD4+ T cell and Treg cells (B16F10 melanoma graft; individual or combinational treatments, graft melanomas): not changed significantly
tumor growth or mouse survival (B16F10 melanoma graft; treatment alone, B16F10 graft): did not impact
Inhibition (%) by 1 μM Z36-MP5 (PRKAG1; PRKAG1, SEQ ID NO: 167, ATP BS): −11.56%
Inhibition (%) by 1 μM Z36-MP5 (PRKAG1; PRKAG1, SEQ ID NO: 168, ATP BS): −7.08%
Inhibition (%) by 1 μM Z36-MP5 (HARS): 4.68%
Inhibition (%) by 1 μM Z36-MP5 (PRKAG1, PRKAG2): −7.97%
inhibitory activity on Mi-2β function (enhanced expression of IFN-γ-responsive genes) [1]: most effective compound
Inhibition (%) by 1 μM Z36-MP5 (ATP5B): −14.96%
Inhibition (%) by 1 μM Z36-MP5 (UBA1): −4.55%
Inhibition (%) by 1 μM Z36-MP5 (DDX18): −5.33%
Inhibition (%) by 1 μM Z36-MP5 (NT5E): −9.95%
Inhibition (%) by 1 μM Z36-MP5 (RFC4): −6.66%
Inhibition (%) by 1 μM Z36-MP5 (GMPS; SEQ ID NO: 85, labeling site Other): −13.99%
Inhibition (%) by 1 μM Z36-MP5 (GMPS; SEQ ID NO: 86, labeling site Other): 14.54%
Inhibition (%) by 1 μM Z36-MP5 (DERA): 6.01%
